ChEMBL document CHEMBL4339240, “Structural Elucidation of Presilphiperfolane-7α,8α-diol, a Bioactive Sesquiterpenoid from Pulicaria vulgaris: A Combined Approach of Solvent-Induced Chemical Shifts, GIAO Calculation of Chemical Shifts, and Full Spin Analysis” (J Nat Prod, 2019)

Legend:
[1] = Toxicity in Artemia salina by brine shrimp lethality assay; details: in vivo
[2] = Toxicity in mouse assessed as induction of mortality; details: in vivo

O=C1C[C@@H]2OCC=C3CN4CC[C@]56c7ccccc7N1[C@H]5[C@H]2[C@H]3C[C@H]46.O=S(=O)(O)O
LC50 [1]: 200 µM | LD50 [2]: < 2 mg/kg
